Test results taken from PMC4961623 (Journal of neurochemistry, 2016).

Molecular target: T1, sterol carrier protein-2 (SCP-2) (Homo sapiens, UniProt P22307)
T1 sequence (P22307 425-547): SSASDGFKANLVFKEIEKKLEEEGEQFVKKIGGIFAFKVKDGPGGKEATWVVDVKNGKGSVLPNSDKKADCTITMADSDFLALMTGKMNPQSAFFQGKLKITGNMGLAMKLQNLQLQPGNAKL
Experiment: fluorescent cis-parinaric acid displacement assay
Format: binding

Structure (SMILES)	Ki [nM]
CCCCC/C=C\C/C=C\C/C=C\C/C=C\CCCC(=O)NCCO [AEA, arachidonoylethanolamide]	290 ± 10
CCCCC/C=C\C/C=C\C/C=C\C/C=C\CCCC(=O)OC(CO)CO [2-AG, 2-arachidonoylglycerol]	200 ± 10
